These results are taken from paper PMC7291828 (Journal of medicinal chemistry, 2019).

Where a SMILES comes first, the peptide text is derived from it. Bridges are numbered along the chain shown (N, C = ends). Roman numbers before positions name the chains, in order. [ ]: non-standard residue; d: D form. 2Nal = N[C@@H](Cc1ccc2ccccc2c1)C(=O)O; Dap = NC[C@H](N)C(=O)O; AEEA = NCCOCCOCC(=O)O

Series [1] relates to HeLa cells. Description: Live-cell confocal microscopy of FAM-labeled peptides. Format: cell-based. Conditions: 5 μM FAM-labeled peptide, 2 h, 1% FBS.
The conditions of series [2]: cited from earlier work.
Series [3] has as its system SW480 cells. The settings on record: up to 50 μM.
Series [4] has as its system MCF7, HCT116 and HeLa cells. The settings on record: ≥20 μM, apparently off-target (membrane disruption).
Series [5] concerns SJSA-1 cells. As to the kind of experiment: MTT viability assay, SJSA-1 cells. It counts as cell-based, human.

In the case of “Ac-LTFCHYWCQLTS-miniPEG-K(FAM) (bicyclic or more) [Peptide 21]”, in series [1], the “intracellular fluorescence” value was “brightly fluorescent”.
For the molecule nonaarginine [Peptide R9], the “fold lower cytosolic delivery efficiency than cyclic CPP9” value in series [2] is listed as 15 fold.
For `CC[C@H](C)[C@@H]1NC(=O)[C@@H](NC(=O)[C@H](CCC(=O)O)NC(=O)[C@@H]2CCCN2C(=O)[C@H](Cc2ccc(O)cc2)NC(=O)CNC(=O)CNC(C)=O)CC(=O)NCCCC[C@@H](C(=O)N[C@@H](Cc2cnc[nH]2)C(=O)N[C@@H](CC(C)C)C(=O)N[C@@H](CCC(N)=O)C(=O)N[C@@H](CCCNC(=N)N)C(=O)N[C@H](C(=O)N[C@H](C(=O)N[C@@H](CC(C)C)C(=O)NCCOCCOCC(=O)NCCOCCOCC(=O)N[C@@H](CNC(=O)CC[C@@H]2NC(=O)[C@@H](CCCNC(=N)N)NC(=O)[C@H](CCCNC(=N)N)NC(=O)[C@@H](CCCNC(=N)N)NC(=O)[C@H](CCCNC(=N)N)NC(=O)[C@H](Cc3ccc4ccccc4c3)NC(=O)[C@@H](Cc3ccccc3)NC2=O)C(N)=O)[C@@H](C)CC)C(C)C)NC(=O)[C@H](CC(=O)O)NC(=O)[C@H](CC(C)C)NC1=O` [Peptide 9] (I: Ac-GGYPEDILDKHLQRVIL[AEEA][AEEA][Dap]-NH2 / II: cyclo([2Nal]R[dR]R[dR]E[dF]); lactam I:6-I:10; amide I:20-II:6), in series [3], the “LDH release from SW480 cells” value is reported as “did not cause significant LDH release”.
As to `CC(=O)N[C@@H](CC(C)C)C(=O)N[C@H](C(=O)N[C@@H](Cc1ccccc1)C(=O)N[C@H]1CC(=O)NCCCC[C@@H](C(=O)N[C@@H](CCC(N)=O)C(=O)N[C@@H](CC(C)C)C(=O)N[C@H](C(=O)N[C@@H](CO)C(=O)NCCOCCOCC(=O)N[C@@H](CCCCNC(=O)CC[C@@H]2NC(=O)[C@@H](CCCNC(=N)N)NC(=O)[C@H](CCCNC(=N)N)NC(=O)[C@@H](CCCNC(=N)N)NC(=O)[C@H](CCCNC(=N)N)NC(=O)[C@H](Cc3ccc4ccccc4c3)NC(=O)[C@@H](Cc3ccccc3)NC2=O)C(N)=O)[C@@H](C)O)NC(=O)[C@H](Cc2c[nH]c3ccccc23)NC(=O)[C@H](Cc2ccc(O)cc2)NC(=O)[C@H](Cc2cnc[nH]2)NC1=O)[C@@H](C)O` [Peptide 4] (I: Ac-LTFDHYWKQLTS[AEEA]K-NH2 / II: cyclo([2Nal]R[dR]R[dR]E[dF]); lactam I:4-I:8; amide I:14-II:6), in series [4], the “effect on cell viability at higher concentrations” value is recorded as “almost complete loss of cell viability”.
As to “Ac-LTFDHYWKQLTS-miniPEG-K(R9) (sidechain bridge or staple) [Peptide 7]”, the “effect on viability of SJSA-1 cells” value in series [5] was “did not cause significant reduction”.
As to “Ac-EETFCHYWCQLTS-miniPEG-K(FAM) (bicyclic or more) [Peptide 25]”, the “intracellular fluorescence” value in series [1] is “brightly fluorescent”.
On the same count and under the same terms, to “Ac-ETFCHYWCQLTS-miniPEG-K(FAM) (bicyclic or more) [Peptide 23]” belongs “brightly fluorescent”.
“Ac-LTFDHYWKQLTS-miniPEG-K(Tat) (sidechain bridge or staple) [Peptide 6]”: the “effect on viability of SJSA-1 cells” value in series [5] is “did not cause significant reduction”.
